# Source: patent US10414763B2 (CANCER RESEARCH TECHNOLOGY LIMITED, priority 2014, dated 2019)
# Target: T1, full-length human PKCι (Homo sapiens, UniProt P41743)
# T1 construct: Recombinant, full-length human PKCι expressed in Sf21 insect cells is also commercially available; purchased EMD Millipore; host or cells: Sf21 insect cells (baculovirus)
# T1 sequence (P41743 1-596): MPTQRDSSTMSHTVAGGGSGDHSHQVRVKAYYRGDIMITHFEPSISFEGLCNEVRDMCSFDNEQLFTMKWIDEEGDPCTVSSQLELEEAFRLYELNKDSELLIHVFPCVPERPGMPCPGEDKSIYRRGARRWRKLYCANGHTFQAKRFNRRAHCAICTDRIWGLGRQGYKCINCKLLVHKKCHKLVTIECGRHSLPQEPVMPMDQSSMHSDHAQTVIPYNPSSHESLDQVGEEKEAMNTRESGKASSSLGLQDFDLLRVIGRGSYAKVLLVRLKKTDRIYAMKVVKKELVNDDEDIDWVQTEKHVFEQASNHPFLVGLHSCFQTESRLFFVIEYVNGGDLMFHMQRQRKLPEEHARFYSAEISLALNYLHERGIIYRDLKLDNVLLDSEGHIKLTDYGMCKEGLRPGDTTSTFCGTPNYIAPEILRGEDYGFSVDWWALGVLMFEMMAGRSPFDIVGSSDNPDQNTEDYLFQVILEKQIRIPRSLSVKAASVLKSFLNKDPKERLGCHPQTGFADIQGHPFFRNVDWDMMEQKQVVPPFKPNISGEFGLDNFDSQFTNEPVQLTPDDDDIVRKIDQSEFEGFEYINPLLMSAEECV
# Experiment: PKCι IC50 IMAP fluorescence polarisation assay, full-length enzyme, 150 μM ATP
# Type: biochemical
# Conditions: read-out: IC50 in IMAP assay against full length PKCi at 150 μM ATP
# Method in brief: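 IMAP fluorescence polarisation kinase assay: 15 pM baculovirus-expressed human PKCiota with 100 nM FAM-pseudosubstrate peptide and 150 μM ATP, 1 h at 25 °C. IMAP detection reagent then 2 h at 25 °C before FP measurement. Inhibition referenced to no-compound and no-enzyme controls for IC50 fitting.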
row,IC50 [nM],Structure (SMILES)
1,100 to 1000,"Clc1ccccc1-c1cc2c(-c3nc(N[C@@H]4[C@@H]5CC[C@H]4CNC5)c4c(C5CC5)cncc4n3)ccnc2[nH]1 [Example 26, (1R,5S,8S)-3-Aza-bicyclo[3.2.1]oct-8-yl-{2-[2-(2-chloro-phenyl)-1H-pyrrolo[2,3-b]pyridin-4-yl]-5-cyclopropyl-pyrido[3,4-d]pyrimidin-4-yl}-amine]"
2,< 100,"CN(c1nc(-c2ccnc3[nH]c(-c4csc(C(C)(C)C)n4)cc23)nc2cncc(C3CC3)c12)C1CCNCC1(C)C (stereo not shown) [Example 32, {2-[2-(2-tert-Butyl-thiazol-4-yl)-1H-pyrrolo[2,3-b]pyridin-4-yl]-5-cyclopropyl-pyrido[3,4-d]pyrimidin-4-yl}-(3,3-dimethyl-piperidin-4-yl)-methyl-amine]"
3,< 100,"c1cc(-c2nc(N3CCNCC3)c3c(C4CC4)cncc3n2)cc(Nc2nc(C3CC3)cs2)n1 [Example 37, [4-(5-Cyclopropyl-4 piperazin-1-yl-pyrido[3,4-d]pyrimidin-2-yl)-pyridin-2-yl]-(4-cyclopropyl-thiazol-2-yl)-amine]"
4,< 100,"c1cc(-c2nc(N3CCNCC3)c3c(C4CCC4)cncc3n2)cc(Nc2nc(C3CC3)cs2)n1 [Example 38, [4-(5-Cyclobutyl-4-piperazin-1-yl-pyrido[3,4-d]pyrimidin-2-yl)-pyridin-2-yl]-(4-cyclopropyl-thiazol-2-yl)-amine]"
5,< 100,"Fc1ccc(-c2cc3c(-c4nc(N5CCNCC5)c5c(C6CC6)cncc5n4)ccnc3[nH]2)c(F)n1 [Example 40, 5-Cyclopropyl-2-[2-(2,6-difluoro-pyridin-3-yl)-1H-pyrrolo[2,3-b]pyridin-4-yl]-4-piperazin-1-yl-pyrido[3,4-d]pyrimidine]"
6,< 100,"Cc1ccc(-c2cc3c(-c4nc(N5CCNCC5)c5c(C6CC6)cncc5n4)ccnc3[nH]2)s1 [Example 41, 5-Cyclopropyl-2-[2-(5-methyl-thiophen-2-yl)-1H-pyrrolo[2,3-b]pyridin-4-yl]-4-piperazin-1-yl-pyrido[3,4-d]pyrimidine]"
7,< 100,"Cc1ccc(-c2cc3c(-c4nc(N5CCNCC5)c5c(C6CC6)cncc5n4)ccnc3[nH]2)o1 [Example 42, 5-Cyclopropyl-2-[2-(5-methyl-furan-2-yl)-1H-pyrrolo[2,3-b]pyridin-4-yl]-4-piperazin-1-yl-pyrido[3,4-d]pyrimidine]"
8,< 100,"Fc1ncccc1-c1cc2c(-c3nc(N4CCNCC4)c4c(C5CC5)cncc4n3)ccnc2[nH]1 [Example 43, 5-Cyclopropyl-2-[2-(2-fluoro-pyridin-3-yl)-1H-pyrrolo[2,3-b]pyridin-4-yl]-4-piperazin-1-yl-pyrido[3,4-d]pyrimidine]"
9,< 100,"Clc1ccc(Cl)c(-c2cc3c(-c4nc(N5CCNCC5)c5c(C6CC6)cncc5n4)ccnc3[nH]2)c1 [Example 46, 5-Cyclopropyl-2-[2-(2,5-dichloro-phenyl)-1H-pyrrolo[2,3-b]pyridin-4-yl]-4-piperazin-1-yl-pyrido[3,4-d]pyrimidine]"

# Further lines, the molecule ahead of its results:
row,Structure (SMILES),IC50 [nM]
1,"CN(c1nc(-c2ccnc3[nH]c(-c4ccc(Cl)cc4Cl)cc23)nc2cncc(C3CC3)c12)C1CCNCC1(C)C (stereo not shown) [Example 24, {5-Cyclopropyl-2-[2-(2,4-dichloro-phenyl)-1H-pyrrolo[2,3-b]pyridin-4-yl]-pyrido[3,4-d]pyrimidin-4-yl}-(3,3-dimethyl-piperidin-4-yl)-methyl-amine]",< 100
2,"Clc1ccccc1-c1cc2c(-c3nc(N[C@H]4[C@@H]5CC[C@H]4CNC5)c4c(C5CC5)cncc4n3)ccnc2[nH]1 [Example 25, (1R,5S,8R)-3-Aza-bicyclo[3.2.1]oct-8-yl-{2-[2-(2-chloro-phenyl)-1H-pyrrolo[2,3-b]pyridin-4-yl]-5-cyclopropyl-pyrido[3,4-d]pyrimidin-4-yl}-amine]",100 to 1000
3,"CN(c1nc(-c2ccnc3[nH]c(Sc4ccccc4)cc23)nc2cncc(C3CCC3)c12)C1CCNCC1 [Example 28, [5-Cyclobutyl-2-(2-phenylsulfanyl-1H-pyrrolo[2,3-b]pyridin-4-yl)-pyrido[3,4-d]pyrimidin-4-yl]-methyl-piperidin-4-yl-amine]",< 100
4,"CN(c1nc(-c2ccnc3[nH]c(Sc4ccccc4)cc23)nc2cncc(C3CC3)c12)C1CCNCC1(C)C (stereo not shown) [Example 29, [5-Cyclopropyl-2-(2-phenylsulfanyl-1H-pyrrolo[2,3-b]pyridin-4-yl)-pyrido[3,4-d]pyrimidin-4-yl]-(3,3-dimethyl-piperidin-4-yl)-methyl-amine]",< 100
5,"COc1nc(-c2ccnc3[nH]c4ccccc4c23)nc2cncc(C3CCC3)c12 [Example 30, 4-(5-Cyclobutyl-4-methoxy-pyrido[3,4-d]pyrimidin-2-yl)-9H-pyrido[2,3-b]indole]",10000 to 40000
6,"CN(c1nc(-c2ccnc3[nH]c4ccccc4c23)nc2cncc(C3CCC3)c12)C1CCNCC1(C)C (stereo not shown) [Example 31, [5-Cyclobutyl-2-(9H-pyrido[2,3-b]indol-4-yl)-pyrido[3,4-d]pyrimidin-4-yl]-(3,3-dimethyl-piperidin-4-yl)-methyl-amine]",< 100
7,"c1ccc2c(c1)[nH]c1nccc(-c3nc(N[C@H]4[C@@H]5CNC[C@@H]54)c4c(C5CCC5)cncc4n3)c12 [Example 33, (2R,6S)-3-Aza-bicyclo[3.1.0]hex-6-yl-[(S)-5-cyclobutyl-2-(9H-pyrido[2,3-b]indol-4-yl)-pyrido[3,4-d]pyrimidin-4-yl]-amine]",< 100
8,"CC1(C)CNCCC1Nc1nc(-c2ccnc(Nc3cc4ccccn4n3)c2)nc2cncc(C3CC3)c12 (stereo not shown) [Example 35, {5-Cyclopropyl-2-[2-(pyrazolo[1,5-a]pyridin-2-ylamino)-pyridin-4-yl]-pyrido[3,4-d]pyrimidin-4-yl}-(3,3-dimethyl-piperidin-4-yl)-amine]",< 100
9,"CN(c1nc(-c2ccnc(Nc3cc4ccccn4n3)c2)nc2cncc(C3CC3)c12)C1CCNCC1(C)C (stereo not shown) [Example 36, {5-Cyclopropyl-2-[2-(pyrazolo[1,5-a]pyridin-2-ylamino)-pyridin-4-yl]-pyrido[3,4-d]pyrimidin-4-yl}-(3,3-dimethyl-piperidin-4-yl)-methyl-amine]",< 100
10,"CC1(C)CNCCC1Nc1nc(-c2ccnc(Nc3nc(C4CC4)cs3)c2)nc2cncc(C3CC3)c12 (stereo not shown) [Example 39, {5-Cyclopropyl-2-[2-(4-cyclopropyl-thiazol-2-ylamino)-pyridin-4-yl]-pyrido[3,4-d]pyrimidin-4-yl}-(3,3-dimethyl-piperidin-4-yl)-amine]",100 to 1000
11,"CN(c1nc(-c2ccnc3[nH]c4ccccc4c23)nc2cncc(C3CCC3)c12)C1CCCNCC1 (stereo not shown) [Example 44, Azepan-4-yl-[5-cyclobutyl-2-(9H-pyrido[2,3-b]indol-4-yl)-pyrido[3,4-d]pyrimidin-4-yl]-methyl-amine]",< 100
12,"CN(c1nc(-c2ccnc3[nH]c(-c4cc(Cl)ccc4Cl)cc23)nc2cncc(C3CC3)c12)C1CCNCC1(C)C (stereo not shown) [Example 45, {5-Cyclopropyl-2-[2-(2,5-dichloro-phenyl)-1H-pyrrolo[2,3-b]pyridin-4-yl]-pyrido[3,4-d]pyrimidin-4-yl}-(3,3-dimethyl-piperidin-4-yl)-methyl-amine]",< 100
13,"CC1(C)CNCCC1Nc1nc(-c2ccnc(Nc3ccccc3)c2)nc2cncc(C3CC3)c12 (stereo not shown) [Example 47, [5-Cyclopropyl-2-(2-phenylamino-pyridin-4-yl)-pyrido[3,4-d]pyrimidin-4-yl]-(3,3-dimethyl-piperidin-4-yl)-amine]",< 100
